For one series, the system named is Apis mellifera. The conditions noted are these: acute, mortality.
The next series concerns Lepomis macrochirus. As to conditions: acute; duration: 96 hours; mortality.
The subject of another series is Oncorhynchus mykiss. The conditions noted are these: chronic/long-term; duration: 21 days; mortality.
In a further series the test system is Phasianus sp. The conditions noted are these: acute; oral; unspecified; mortality.
The next series deals with Anas platyrhynchos. The conditions noted are these: acute; oral; unspecified; mortality.
The subject of a further series is Folsomia candida. The conditions noted are these: chronic/long-term; duration: 28 days.
In another series the test system is Daphnia magna. The conditions noted are these: chronic/long-term; duration: 21 days; mortality.
In the next series the test system is Canidae. The conditions noted are these: chronic; duration: 1 years; oral; Dog Other; organ weight.
In the next series the test system is Bibionidae. As to conditions: chronic/long-term; duration: 28 days; development.
The test system of another series is Tagia sp. As to conditions: acute; duration: 14 days; mortality.

Values after ≈ are worked out from the molar mass of the structure shown. Some results are limits rather than exact numbers.

The NOAEL is the highest tested level that showed no adverse finding. Regarding `CC(Cc1ccc(C(C)(C)C)cc1)CN1CCCCC1` (stereo unspecified) [Fenpropidin], the LD50 with Apis mellifera (dermal) was 46 µg/piece; with Apis mellifera (oral, unspecified), > 10 µg/piece; in the series with Rattus norvegicus (acute, mortality), 1450 mg/kg-day; with Phasianus sp., 369 mg/kg-day; in the series on Anas platyrhynchos, 1900 mg/kg-day; with Colinus virginianus (acute, oral, diet, mortality) it was > 1420 mg/kg-day. Also, the LC50 is 1.9 µg/mL (≈ 6.95 µM) in the series on Lepomis macrochirus and > 500 mg/kg with Tagia sp.. The NOEC with Oncorhynchus mykiss was 0.32 mg/L; in the series on Folsomia candida it was 46.5 mg/kg; in the series with Daphnia magna, 0.32 mg/L; in the series with Bibionidae, 1 mg/L. Also, the no-observed-adverse-effect level (NOAEL) was found to be 2.27 mg/kg-day with Rattus norvegicus (chronic, duration: 2 years, body weight); 60.2 mg/kg-day in the series on Rattus norvegicus (reproduction developmental); 14.6 mg/kg-day in the series on Colinus virginianus (reproduction developmental); 2 mg/kg-day in the series with Canidae.

Source of the values: EPA's ToxValDB 9.5 (doi:10.2903/j.efsa.2008.124r).
